Patent US11357817B2, “Immunoproteasome inhibitor” (The Regents of the University of California, priority 2017, dated 2022)

How the values were obtained:
[1] = test system: P. falciparum Stage V gametocytes; assay: Compound sensitivity testing of Stage V gametocytes; format: cell-based; conditions: Plasmodium falciparum, read-out: IC50 against stage V gametocytes
Protocol: Gametocytes were induced in NF54 or derived clones as previously described (33). Asexual blood stage parasites were synchronized at ring stage using 5% sorbitol for three consecutive life cycles. Once the culture reached a parasitemia of 8-10% ring stages, half of the media was exchanged to stress the parasites. Twenty-four hours later, the culture media was exchanged with fresh media and the culture was shaken overnight. The following day, the culture was treated with 50 mM N-acetyl-glucosamine (NAG) (in complete media), and new media containing NAG was added every day for 10 days to clear remaining asexual blood stage parasites and enrich for gametocytes. After 10 days, complete media without NAG was provided each day for the last two days of gametocyte development in order to obtain ˜1% gametocytemia with >80% Stage V specificity and no visible asexual blood stage parasites (assessed via Giemsa-stained thin smears). Drug Sensitivity of Stage V gametocytes were then determined using a published protocol using mitotracker red (34). Each compound was tested in technical triplicate in a ten-point concentration curve prepared by three-fold dilution starting at 12.5 μM. At least three independent experiments were carried out for EC50 determination and puromycin was used as a positive control. […]

HepG2 cells = assay: HepG2 cytotoxicity assay; format: cell-based; conditions: Homo sapiens
Protocol: The liver-stage and HepG2 toxicity assays were performed as previously reported (35). Briefly, HepG2-A16-CD81EGFP, human hepatocarcinoma HepG2 cells stably transformed to express the tetraspanin CD81 receptor (36, 37) and thus susceptible to P. berghei infection, were cultured at 37° C. in 5% CO2 in DMEM (Life Technologies, Calif.) supplemented with 10% FBS, 0.29 mg/ml glutamine, 100 unit penicillin and 100 μg/ml streptomycin. For both the P. berghei-luciferase and HepG2 cytotoxicity assays, 3×10^3 of the HepG2-A16-CD81EGFP cells in 5 μl of assay medium (DMEM without Phenol Red (Life Technologies, Calif.), 5% FBS, and 5× Pen Strep Glutamine (Life Technologies, Calif.)) at concentration 6×10^5 cells/ml were seeded in 1536-well plates (Greiner BioOne white solid bottom custom GNF mold) 20-26 hours prior to the actual infection. 18 hours prior to infection, 50 nl of compound in DMSO (0.5% final DMSO concentration per well) were transferred with Acoustic Transfer System (ATS) (Biosero) into the assay plates. Atovaquone (12-point serial dilution starting at 10 μM) and Puromycin (12-point serial dilution starting at 10 μM) were used as positive controls for Pb. liver stage assay and HepG2 cytotoxicity respectively. 0.5% DMSO was used as negative control for the both assays.
An. stephensi mosquitoes, infected with P. berghei-luciferase, were provided by the New York University Insectary. P. berghei-luciferase sporozoites were freshly dissected from the infected A. stephensi mosquito salivary glands, filtered twice through a 20 μm nylon net filter using Steriflip Vacuum-Driven Filtration System (Millipore), counted in a hemocytometer, and then adjusted to final concentration 200 sporozoites per μl in the assay media. […] The HepG2-A16-CD81EGFP cell designated for toxicity studies were left uninfected, with 5 ul of additional assay media added to each well to maintain equal concentrations of compounds with P. berghei-luciferase infected plates. After incubation at 37° C. for 48 hours the exoerythrocytic growth and HepG2-A16-CD81EGFP cell viability were quantified by a bioluminescence measurement.
The HepG2 cytotoxicity was assessed by removing the media through an inverted spin of the plates at 150 g for 30 s and addition of 2 μL of CellTiterGlo reagent (Promega diluted 1:2 with deionized water) per well using the MicroFlo liquid handler (BioTek). Immediately after addition of the luminescence reagent, the plates were vortexed for 10 s and read with an EnVision Multilabel reader (PerkinElmer). IC50 values were obtained as above.

[2] = test system: 20S Plasmodium proteasome (Pf20S) β5 subunit; assay: Proteasome activity assay, Pf20S β5 (suc-LLVY-AMC); format: biochemical, Plasmodium falciparum
Protocol: Asynchronous P. falciparum cultures were grown up to 4-5% parasitemia, in 300 mL of RPMI media at 5.0% hematocrit. Cultures were then transferred to 50 mL conical tubes, pelleted via centrifugation at 800 g for 5 min, and washed once with 1×PBS and pelleted again as above. The PBS was removed and lysis buffer (0.15% saponin in PBS) was added on ice in 10 pellet volumes. Upon lysis of red blood cells, indicated by a clear red supernatant, the lysed cultures were centrifuged at 3200×g for 12 minutes at 4° C. The supernatant was removed by aspiration and the cells were washed twice using chilled PBS in microcentrifuge tubes. The cell pellets were then incubated on ice for 1 hour with occasional vortexing in a buffer consisting of 20 mM Tris-HCl pH 7.5, 5 mM MgCl2, 1 mM DTT, 100 μM E-64 and 1 mM AEBSF. This sample was then subjected to 3 rounds of freezing (−80° C.) and thawing (37° C.) and centrifugation at 6000×g for 10 min. The supernatant containing soluble P. falciparum protein was quantified by the BCA method (Pierce).
P. falciparum proteasome was enriched by two-chromatographic steps reported previously (10). In brief, 10 mg of P. falciparum protein was concentrated to 1 mL using a 100 kDa centrifugal filter unit (Amicon) and loaded onto a 5 mL anion exchange HiTrap DEAE FF column (GE Healthcare). […] The AMC fluorophore release was monitored at Ex 340/Em 465 nm at 24° C. using a Synergy HTX multi-mode reader (Biotek). […] Proteins were eluted using 20 mM Tris-HCl pH 7.5, 100 mM NaCl, 10% glycerol and 1 mL fractions were collected, evaluated for protease activity and pooled.
To estimate the concentration of Pf20S in the final pooled sample, protein was denatured and loaded into a 4-12% Bis-Tris Plus gel (Thermo Fisher Scientific) beside 60 to 100 ng of human constitutive proteasome (Boston Biochem). […] For inhibition assays, inhibitor and substrate were added simultaneously to the enzyme and the rate of AMC release was determined from 60 to 120 minutes and compared to a DMSO control.

## CCCCCC(=O)N[C@@H](C(=O)N[C@@H](CCCC)C(=O)N[C@@H](CC(C)C)C(=O)[C@@]1(C)CO1)C(C)C [Analog 18, (S)-2-((R)-2-hexanamido-3-methylbutanamido)-N—((S)-4-methyl-1-((R)-2-methyloxiran-2-yl)-1-oxopentan-2-yl)hexanamide]
[1]
  IC50: 130 nM
HepG2 cells
  IC50: 1240 ± 274 nM
[2]; 450 nM compound, proteasome not named
  decrease in β5 activity: 45%
[2]; β5 activity, 50 nM compound
  potency towards Pf20S compared with c20S: more potent towards Pf20S than c20S
